Measured values as given in patent publication US20040047863A1, “Combination therapy using a TNF binding protein for treating TNF-mediated diseases” (Amgen Inc., priority 1996, published 2004).

How the values were obtained:
adjuvant arthritic rats [1] = experiment: Adjuvant-induced arthritis model, combination of sTNFR-II Fc and methotrexate (Example 2); assay type: in vivo, rat
Procedure: An animal model of rheumatoid arthritis induced by an adjuvant was used to investigate the combination therapy of a TNF binding protein and methotrexate in male Lewis rats (5-7/group) weighing at least 200 g.
On day-0, all rats were injected with 100 μl of Freunds Complete Adjuvant (Sigma Chemical Co., St. Louis, Mo.) to which a synthetic adjuvant, N,N-dioctyldecyldecyl-N′, N-bis(2-hydroxy-ethyl) propanediamine, 50 mg/ml, was added. On day 0-14 methotrexate in 1% carboxymethylcellulose (Sigma) was orally administered daily (0.06 mg/kg) to two groups of rats. On days 9, 11, and 13, CHO-derived sTNFR-II/hIgG1 fusion protein (sTNFR-II Fc; prepared generally in accordance with the teachings of EP 418 014) formulated in pharmaceutical composition (34 mM NaCl, 10 mM sodium phosphate, 4% sorbitol (w/v) in water; pH 6.5) was administered by subcutaneous infusion (18 mg/kg) to one group of rats being treated with both Freunds Complete Adjuvant and methotrexate and to another group of rats being treated with Freunds Complete Adjuvant alone.
Body weights were taken on day 0 and every other day from day 9 to termination on day 15. Caliper measurements and clinical scoring were done daily from day 9 until termination on day 15. At this time animal's body, paw and spleen weights were determined.

adjuvant arthritic rats [2] = experiment: Adjuvant-induced arthritis model, combination of c105 sTNFR-I dumbbell and methotrexate (Example 1); assay type: in vivo, rat
Procedure: An animal model of rheumatoid arthritis induced by an adjuvant was used to investigate the combination therapy of a TNF binding protein and methotrexate in male Lewis rats (3-7/group) weighing at least 200 g.
On day-0, all rats were injected with 100 μl of Freunds Complete Adjuvant (Sigma Chemical Co., St. Louis, Mo.) to which a synthetic adjuvant, N,N-dioctyldecyldecyl-N′, N-bis(2-hydroxy-ethyl) propanediamine, 50 mg/ml, was added. On days 0-14 methotrexate in 1% carboxymethylcellulose (Sigma) was orally administered daily (0.06 mg/kg) to two groups of rats. On days 8, 10, 12, and 14, E. coli-derived c105 sTNFR-I dimerized with PEG-20,000-bis-vinyl sulfone (c105 sTNFR-I dumbbell; prepared generally in accordance with the teachings of WO 95/34326) formulated in pharmaceutical composition (34 mM NaCl, 10 mM sodium phosphate, 4% sorbitol (w/v) in water; pH 6.5) was administered by subcutaneous (SC) injection (3 mg/kg) to one group of rats being treated with both Freunds Complete Adjuvant and methotrexate and to another group of rats being treated with Freunds Complete Adjuvant alone.
Body weights were taken on day 0 and every other day from day 9 to termination on day 15. Caliper measurements and clinical scoring were done on day 9 and every other day until termination. At this time animal's body, paw and spleen weights were determined.

[3] = system: MRL-1pr/1pr autoimmune mice challenged with LPS/D-GalNH2; experiment: LPS/D-Galactosamine induced lethality model (Example 3); assay type: in vivo, mouse; conditions: N=6
Procedure: The combination immunotherapeutic effects of c105 STNFR-I dumbbell and fas fusion protein were assessed using a mouse model of D-Galactosamine (D-GalNH2) induced lethality. The D-galactosamine (D-GalNH2)/Lipopolysaccharide (LPS) model (Mountz et al., J. Immunology, 155:4829-4837). In this model, MRL-1pr/1pr autoimmune mice are administered D-GalNH2 with bacterial endotoxin (LPS), and lethality is observed through +96 hours post challenge.
After overnight fasting, 6-8 week old female MRL-1pr/1pr mice (Jackson Laboratory, Bar Harbor, Me.) (5/7/group) were cannulated with jugular catheters and allowed to recover for several days. They were then placed in infusion cages and acclimated for a week prior initiating saline infusion.
At hour-0, all mice were injected intraperitoneally with 31 micrograms of D-GalNH2 (Sigma) suspended in Hank's Balanced Salt Solution (Gibco BRL) (120 micrograms/ml); and lipopolysaccharide (LPS) from E. coli Serotype 0127:B8 (Sigma) in sterile, endotoxin-free phosphate buffered saline (PBS) (6 micrograms/mouse).
At 0-hour-+2 hours post-challenge, fas fusion protein formulated in a pharmaceutical composition (Phosphate buffered saline (Gibco BRL, Grand Island, N.Y.)) was administered intravenously in serial 2-fold dilutions (microgram/kg dosages) to two groups of mice. […]

[4] = male Lewis rats, Freunds Complete Adjuvant, sTNFR-II Fc 18 mg/kg subcutaneous days 9, 11, 13, methotrexate 0.06 mg/kg oral daily days 0-14
[5] = final analysis (inhibition at termination, day 15), c105 sTNFR-I dumbbell 3 mg/kg SC, methotrexate 0.06 mg/kg oral daily
[6] = male Lewis rats, Freunds Complete Adjuvant, c105 sTNFR-I dumbbell 3 mg/kg SC days 8, 10, 12, 14, methotrexate 0.06 mg/kg oral daily days 0-14
[7] = male Lewis rats, Freunds Complete Adjuvant, c105 sTNFR-I dumbbell 3 mg/kg SC days 8, 10, 12, 14, methotrexate 0.06 mg/kg oral daily days 0-14, as reported with FIGS. 3 and 4

Molecule	inhibition of paw inflammation (terminal paw weights) (adjuvant arthritic rats [1]; final analysis (inhibition at termination, day 15), sTNFR-II Fc 18 mg/kg, methotrexate 0.06 mg/kg oral daily) [%]	inhibition of body weight change (adjuvant arthritic rats [1]; [4]) [%]	inhibition of paw swelling (area under the curve—AUC) (adjuvant arthritic rats [1]; [4]) [%]	inhibition of splenomegaly / spleen weight (adjuvant arthritic rats [1]; [4]) [%]	inhibition of body weight change (adjuvant arthritic rats [2]; [5]) [%]	inhibition of paw inflammation (terminal paw weights) (adjuvant arthritic rats [2]; [5]) [%]	inhibition of splenomegaly (terminal spleen weights) (adjuvant arthritic rats [2]; [5]) [%]	inhibition of paw swelling (area under the curve-AUC) (adjuvant arthritic rats [2]; [6])	inhibition of body weight change (adjuvant arthritic rats [2]; [7])	inhibition of splenomegaly / spleen weight (adjuvant arthritic rats [2]; [7])	survival ([3]; c105 sTNFR-I dumbbell 100 micrograms/kg I.V., time=−1 hour before challenge, P<0.01 vs saline control) [%]	protection ([3]; sub-optimal dose 25 micrograms/kg, through +96 hours after challenge) [%]
N-[4-[(2,4diamino-6-pteridinyl)methylamino]benzoyl]-L-glutamic acid [methotrexate]	74	64	66	74	3	3.9	8.5	26%	3%	no inhibition		
c105 sTNFR-I dumbbell: E. coli-derived c105 sTNFR-I dimerized with PEG-20,000-bis-vinyl sulfone (protein, UniProt P19438 30-211, looked up, extracellular domain c105 truncation; PEG-20000-bis-vinyl sulfone dimer, E. coli-derived c105 sTNFR-I dimerized with PEG-20,000-bis-vinyl sulfone) extracellular domain: LVPHLGDREKRDSVCPQGKYIHPQNNSICCTKCHKGTYLYNDCPGPGQDTDCRECESGSFTASENHLRHCLSCSKCRKEMGQVEISSCTVDRDTVCGCRKNQYRHYWSENLFQCFNCSLCLNGTVHLSCQEKQNTVCTCHAGFFLRENECVSCSNCKKSLECTKLCLPQIENVKGTEDSGTT					13.2	10.9	30.4	about 42%	about 13.2%	no significant benefit	100	−35
